The text below walks through data of patent publication US20080207614A1, “QUINAZOLINE DERIVATIVES FOR THE TREATMENT AND PREVENTION OF DIABETES AND OBESITY” (SK CHEMICALS CO., LTD., priority 2004, published 2008).

The assay concerns C2C12 muscle cells. In words: Analysis of glucose absorption (2-deoxyglucose) in differentiated C2C12 muscle cells. In kind it is cell-based. Particulars: test materials 10 μM, times relative to control group. As for the experimental part:
C2C12 muscle cells were cultured in DMEM (Dulbecco's modified Eagle's medium) containing 10% bovine calf serum. When the cell density increased to about 85 to 90%, the culture medium was replaced with 1% bovine calf serum and cell differentiation was induced for 6 days. Completely differentiated cells were cultured for 3 hours with Krebs-Ringer buffer (KRB) containing 5 mM glucose. The test materials were added at a concentration of 10 μM. 30 minutes later, 0.2 μCi 2-deoxyglucose was added. KRB was removed 20 minutes later and the cells were washed for 3 times with cold PBS. The cells were lysed with 0.5N NaOH and counted using a radioactive counter.
The molecule `c1ccc(Cc2nc(NCc3ccc4c(c3)OCO4)c3ccccc3n2)cc1` [Compound 218, Benzo[1,3]dioxol-5-ylmethyl-(2-benzylquinazolino-4-yl)-amine] registered a Glucose absorption of 2.0.

As to `FC(F)(F)c1cccc(CNc2nc(-c3cccnc3)nc3ccccc23)c1` [Compound 238, (2-Pyridino-3-ylquinazolino-4-yl)-(3-trifluoromethylbenzyl)-amine], the Glucose absorption amounted to 1.0. With `CCSc1nc(NC(C)c2ccccc2)c2ccccc2n1` (stereo not drawn) [Compound 23, (2-Ethylsulfanylquinazolino-4-yl)-(1-phenylethyl)-amine], the Glucose absorption amounted to 0.8. `Cc1ccc(CNc2nc(-c3ccccc3)nc3ccccc23)cc1` [Compound 54, (4-Methylbenzyl)-(2-phenylquinazolino-4-yl)-amine] came in with a Glucose absorption of 1.2. To `CCCCNc1nc(-c2ccccc2)nc2ccccc12` [Compound 56, Butyl-(2-phenylquinazolino-4-yl)-amine] belongs 1.1; to `c1ccc(CNc2nc(-c3ccncc3)nc3ccccc23)cc1` [Compound 247, Benzyl-(2-pyridino-4-ylquinazolino-4-yl)-amine], 1.3; to `c1cncc(-c2nc(NCc3cccc4ccccc34)c3ccccc3n2)c1` [Compound 241, Naphthaleno-1-ylmethyl-(2-pyridino-3-ylquinazolino-4-yl)-amine], 1.2. `COc1ccc(CNc2nc(C(C)(C)C)nc3ccccc23)cc1` [Compound 189, (2-tert-Butylquinazolino-4-yl)-(4-methoxybenzyl)-amine] gave a Glucose absorption of 1.3. On to `OCCNc1nc(C2CCCCC2)nc2ccccc12` [Compound 210, 2-(2-Cyclohexylquinazolino-4-ylamino)-ethanol], for which the Glucose absorption came out at 0.9.

Molecule `COc1ccc(CNc2nc(Cc3ccccc3)nc3ccccc23)c(OC)c1` [Compound 333, (2-Benzylquinazolino-4-yl)-(2,4-dimethoxybenzyl)-amine] returned a Glucose absorption of 1.2. To `c1ccc(CNc2nc(-c3ccccc3)nc3ccccc23)cc1` [Compound 86, Benzyl-(2-phenylquinazolino-4-yl)-amine] belongs 1.4. Consider `COc1cccc(CNc2nc(-c3ccccc3)nc3ccccc23)c1` [Compound 90, (3-Methoxybenzyl)-(2-phenylquinazolino-4-yl)-amine], for which the Glucose absorption stood at 1.4.

`Oc1ccccc1CCNc1nc(-c2ccccc2)nc2ccccc12` [Compound 152, 2-[2-(2-Phenylquinazolino-4-ylamino)-ethyl]-phenol] gave a Glucose absorption of 2.4.

`c1ccc(CCCCNc2nc(C3CCCCC3)nc3ccccc23)cc1` [Compound 204, (2-Cyclohexylquinazolino-4-yl)-(4-phenylbutyl)-amine] returned a Glucose absorption of 1.2. In turn, `Cc1ccccc1Nc1nc(-c2ccccc2)nc2ccccc12` [Compound 71, (2-Phenylquinazolino-4-yl)-o-tollylamine] came in with a Glucose absorption of 1.0.

Take `c1ccc2c(NCc3ccc4c(c3)OCO4)nc(-c3ccncc3)nc2c1` [Compound 254, Benzo[1,3]dioxol-5-ylmethyl-(2-pyridino-4-ylquinazolino-4-yl)-amine]: the Glucose absorption came to 1.4.

As to `Fc1cccc(CCNc2nc(Cc3ccccc3)nc3ccccc23)c1` [Compound 220, (2-Benzylquinazolino-4-yl)-[2-(3-fluorophenyl)-ethyl]-amine], the Glucose absorption turned out to be 2.5. In turn, `FC(F)(F)c1cccc(CNc2nc(-c3ccc(Cl)cc3)nc3ccccc23)c1` [Compound 262, [2-(4-Chlorophenyl)-quinazolino-4-yl]-(3-trifluoromethylbenzyl)-amine] had a Glucose absorption of 1.1.

`c1ccc(CNc2nc(-c3cccnc3)nc3ccccc23)cc1` [Compound 235, Benzyl-(2-pyridino-3-ylquinazolino-4-yl)-amine] yielded a Glucose absorption of 1.2. In the case of `CCc1ccc(Nc2nc(-c3ccccc3)nc3ccccc23)cc1` [Compound 75, (4-Ethyl-phenyl)-(2-phenylquinazolino-4-yl)-amine], the Glucose absorption was 1.3. As to `OCCNc1nc(-c2ccc(Cl)cc2)nc2ccccc12` [Compound 270, 2-[2-(4-Chlorophenyl)-quinazolino-4-ylamino]-ethanol], the Glucose absorption is reported as 1.1. Molecule `CCSc1nc(NCC(C)C)c2ccccc2n1` [Compound 21, (2-Ethylsulfanylquinazolino-4-yl)-isobutylamine] registered a Glucose absorption of 1.2. The molecule `c1ccc(Nc2nc(-c3ccccc3)nc3ccccc23)cc1` [Compound 69, Phenyl-(2-phenylquinazolino-4-yl)-amine] displayed a Glucose absorption of 1.0. `COc1ccc(CNc2nc(Cc3ccccc3)nc3ccccc23)cc1` [Compound 213, (2-Benzylquinazolino-4-yl)-(4-methoxybenzyl)-amine] showed a Glucose absorption of 1.4. Consider `Fc1cccc(CCNc2nc(-c3ccccn3)nc3ccccc23)c1` [Compound 232, [2-(3-Fluorophenyl)-ethyl]-(2-pyridino-2-ylquinazolino-4-yl)-amine], for which the Glucose absorption is listed as 1.2. `CCSc1nc(NCCO)c2ccccc2n1` [Compound 47, 2-(2-Ethylsulfanylquinazolino-4-ylamino)-ethanol] gave a Glucose absorption of 0.9. For the molecule `c1ccc(-c2nc(NCc3cccs3)c3ccccc3n2)cc1` [Compound 59], the Glucose absorption is 1.2. In turn, `CCSc1nc(NCc2ccccc2F)c2ccccc2n1` [Compound 39, (2-Ethylsulfanylquinazolino-4-yl)-(2-fluorobenzyl)-amine] came in with a Glucose absorption of 0.9. With `CC(C)(C)c1nc(NCc2cccc(C(F)(F)F)c2)c2ccccc2n1` [Compound 190, (2-tert-Butylquinazolino-4-yl)-(3-trifluoromethylbenzyl)-amine] the figure was 1.2; with `CC(C)OCCCNc1nc(-c2ccccc2)nc2ccccc12` [Compound 62, (3-Isopropoxypropyl)-(2-phenylquinazolino-4-yl)-amine], 1.1.

In the case of `Clc1ccc(-c2nc(NCCCCc3ccccc3)c3ccccc3n2)cc1` [Compound 264, [2-(4-Chlorophenyl)-quinazolino-4-yl]-(4-phenylbutyl)-amine], the Glucose absorption was 1.1. As for `CC(C)(C)c1nc(NCCO)c2ccccc2n1` [Compound 198, 2-(2-tert-Butylquinazolino-4-ylamino)-ethanol], the Glucose absorption was 1.4.

`CCSc1nc(NCCCN2CCOCC2)c2ccccc2n1` [Compound 36, (2-Ethylsulfanylquinazolino-4-yl)-(3-morpholino-4-ylpropyl)-amine] returned a Glucose absorption of 1.4. Molecule `CCCCCCCCCCCCCCCCNc1nc(SCC)nc2ccccc12` [Compound 43, (2-Ethylsulfanylquinazolino-4-yl)-hexadecylamine] returned a Glucose absorption of 1.1. To `CCSc1nc(NCCN2CCCC2)c2ccccc2n1` [Compound 45, (2-Ethylsulfanylquinazolino-4-yl)-(2-pyrrolidino-1-ylethyl)-amine] belongs 1.1; to `c1ccc(Oc2ccc(Nc3nc(-c4ccccc4)nc4ccccc34)cc2)cc1` [Compound 82, (4-Phenoxy-phenyl)-(2-phenylquinazolino-4-yl)-amine], 1.2.
